Measured values taken from ChEMBL document CHEMBL3885881, “DrugMatrix”.

Species: Rattus norvegicus
Assay: DrugMatrix - Regimen: Daily Repeat
Type: toxicity, organism-based, Sprague-Dawley
Design: regimen Daily Repeat, gender Male, age 6-8 weeks
Conditions: in vivo, po, route oral GAVAGE, […]; for ABSOLUTE BASOPHIL / ABSOLUTE EOSINOPHIL / ABSOLUTE LYMPHOCYTE / ABSOLUTE MONOCYTE / ABSOLUTE SEGMENTED NEUTROPHIL / BASOPHIL / EOSINOPHIL / ERYTHROCYTE COUNT / HEMATOCRIT / HEMOGLOBIN / LEUKOCYTE COUNT / LYMPHOCYTE / MEAN CORPUSCULAR HEMOGLOBIN / MEAN CORPUSCULAR HEMOGLOBIN CONCENTRATION / MEAN CORPUSCULAR VOLUME / MONOCYTE / NEUTROPHIL / NUCLEATED RED BLOOD CELLS / PLATELET COUNT: tissue Blood; for ALANINE AMINOTRANSFERASE / ALBUMIN / ALKALINE PHOSPHATASE / ASPARTATE AMINOTRANSFERASE / BLOOD UREA NITROGEN / CARBON DIOXIDE / CHLORIDE / CHOLESTEROL / CREATINE PHOSPHOKINASE / CREATININE / GLUCOSE / LACTATE DEHYDROGENASE / LIPASE / PHOSPHORUS / POTASSIUM / SODIUM / TOTAL BILIRUBIN / TOTAL PROTEIN / URIC ACID: tissue Plasma
[1] = 5 mg/kg, 120 h, dose level Low, time 5 day
[2] = 94 mg/kg, 72 h, dose level High, time 3 day
[3] = 94 mg/kg, 120 h, dose level High, time 5 day

SMILES: CC(C)n1c(/C=C/C(O)CC(O)CC(=O)O)c(-c2ccc(F)cc2)c2ccccc21 (centres undefined) [FLUVASTATIN]
- ABSOLUTE BASOPHIL [1]: 0 CELLS/uL
- ABSOLUTE EOSINOPHIL [1]: 0 CELLS/uL
- ABSOLUTE LYMPHOCYTE [1]: 8489.33 CELLS/uL
- ABSOLUTE MONOCYTE [1]: 28 CELLS/uL
- ABSOLUTE SEGMENTED NEUTROPHIL [1]: 816 CELLS/uL
- BASOPHIL [1]: 0%
- EOSINOPHIL [1]: 0%
- ERYTHROCYTE COUNT [1]: 5.73 x10E6/uL
- HEMATOCRIT [1]: 34.77%
- HEMOGLOBIN [1]: 13.73 G/DL
- LEUKOCYTE COUNT [1]: 9.33 x10E3/uL
- LYMPHOCYTE [1]: 90.67%
- MEAN CORPUSCULAR HEMOGLOBIN [1]: 24 pg
- MEAN CORPUSCULAR HEMOGLOBIN CONCENTRATION [1]: 39.5 G/DL
- MEAN CORPUSCULAR VOLUME [1]: 60.73 fL
- MONOCYTE [1]: 0.33%
- NEUTROPHIL [1]: 9%
- NUCLEATED RED BLOOD CELLS [1]: 0 /100WBC
- PLATELET COUNT [1]: 1186.33 x10E3/uL
- ALANINE AMINOTRANSFERASE [1]: 89.67 u/L
- ALBUMIN [1]: 4.33 G/DL
- ALKALINE PHOSPHATASE [1]: 440.33 u/L
- ASPARTATE AMINOTRANSFERASE [1]: 141.33 u/L
- BLOOD UREA NITROGEN [1]: 13 mg/dL
- CARBON DIOXIDE [1]: 25.67 mmol/L
- CHLORIDE [1]: 103 MEQ/L
- CHOLESTEROL [1]: 59.67 mg/dL
- CREATINE PHOSPHOKINASE [1]: 300.67 u/L
- CREATININE [1]: 0.19 mg/dL
- GLUCOSE [1]: 158.33 mg/dL
- LACTATE DEHYDROGENASE [1]: 263.33 u/L
- LIPASE [1]: 51.67 u/L
- PHOSPHORUS [1]: 9.2 mg/dL
- POTASSIUM [1]: 5.92 MEQ/L
- SODIUM [1]: 148.8 MEQ/L
- TOTAL BILIRUBIN [1]: 0.17 mg/dL
- TOTAL PROTEIN [1]: 5.6 G/DL
- URIC ACID [1]: 0.77 mg/dL
- ABSOLUTE BASOPHIL [2]: 0 CELLS/uL
- ABSOLUTE EOSINOPHIL [2]: 39 CELLS/uL
- ABSOLUTE LYMPHOCYTE [2]: 7651.67 CELLS/uL
- ABSOLUTE MONOCYTE [2]: 155.33 CELLS/uL
- ABSOLUTE SEGMENTED NEUTROPHIL [2]: 2554 CELLS/uL
- BASOPHIL [2]: 0%
- EOSINOPHIL [2]: 0.33%
- ERYTHROCYTE COUNT [2]: 5.55 x10E6/uL
- HEMATOCRIT [2]: 35.43%
- HEMOGLOBIN [2]: 13.93 G/DL
- LEUKOCYTE COUNT [2]: 10.4 x10E3/uL
- LYMPHOCYTE [2]: 73.33%
- MEAN CORPUSCULAR HEMOGLOBIN [2]: 25.1 pg
- MEAN CORPUSCULAR HEMOGLOBIN CONCENTRATION [2]: 39.33 G/DL
- MEAN CORPUSCULAR VOLUME [2]: 63.83 fL
- MONOCYTE [2]: 1.33%
- NEUTROPHIL [2]: 25%
- NUCLEATED RED BLOOD CELLS [2]: 0 /100WBC
- PLATELET COUNT [2]: 1394.33 x10E3/uL
- ALANINE AMINOTRANSFERASE [2]: 258.33 u/L
- ALBUMIN [2]: 4.47 G/DL
- ALKALINE PHOSPHATASE [2]: 597.67 u/L
- ASPARTATE AMINOTRANSFERASE [2]: 446.67 u/L
- BLOOD UREA NITROGEN [2]: 15 mg/dL
- CARBON DIOXIDE [2]: 34.67 mmol/L
- CHLORIDE [2]: 95.67 MEQ/L
- CHOLESTEROL [2]: 55.67 mg/dL
- CREATINE PHOSPHOKINASE [2]: 534 u/L
- CREATININE [2]: 0.16 mg/dL
- GLUCOSE [2]: 136.33 mg/dL
- LACTATE DEHYDROGENASE [2]: 400.33 u/L
- LIPASE [2]: 10 u/L
- PHOSPHORUS [2]: 11.83 mg/dL
- POTASSIUM [2]: 5.75 MEQ/L
- SODIUM [2]: 143.43 MEQ/L
- TOTAL BILIRUBIN [2]: 0.2 mg/dL
- TOTAL PROTEIN [2]: 6.1 G/DL
- URIC ACID [2]: 0.7 mg/dL
- ABSOLUTE BASOPHIL [3]: 0 CELLS/uL
- ABSOLUTE EOSINOPHIL [3]: 0 CELLS/uL
- ABSOLUTE LYMPHOCYTE [3]: 6138.33 CELLS/uL
- ABSOLUTE MONOCYTE [3]: 139 CELLS/uL
- ABSOLUTE SEGMENTED NEUTROPHIL [3]: 2022.67 CELLS/uL
- BASOPHIL [3]: 0%
- EOSINOPHIL [3]: 0%
- ERYTHROCYTE COUNT [3]: 6.14 x10E6/uL
- HEMATOCRIT [3]: 37.2%
- HEMOGLOBIN [3]: 14.47 G/DL
- LEUKOCYTE COUNT [3]: 8.3 x10E3/uL
- LYMPHOCYTE [3]: 74%
- MEAN CORPUSCULAR HEMOGLOBIN [3]: 23.6 pg
- MEAN CORPUSCULAR HEMOGLOBIN CONCENTRATION [3]: 38.9 G/DL
- MEAN CORPUSCULAR VOLUME [3]: 60.67 fL
- MONOCYTE [3]: 1.67%
- NEUTROPHIL [3]: 24.33%
- NUCLEATED RED BLOOD CELLS [3]: 0 /100WBC
- PLATELET COUNT [3]: 1488.67 x10E3/uL
- ALANINE AMINOTRANSFERASE [3]: 191 u/L
- ALBUMIN [3]: 4.5 G/DL
- ALKALINE PHOSPHATASE [3]: 802.67 u/L
- ASPARTATE AMINOTRANSFERASE [3]: 387.67 u/L
- BLOOD UREA NITROGEN [3]: 11.67 mg/dL
- CARBON DIOXIDE [3]: 29.33 mmol/L
- CHLORIDE [3]: 100 MEQ/L
- CHOLESTEROL [3]: 53.33 mg/dL
- CREATINE PHOSPHOKINASE [3]: 612.33 u/L
- CREATININE [3]: 0.13 mg/dL
- GLUCOSE [3]: 134.33 mg/dL
- LACTATE DEHYDROGENASE [3]: 263.33 u/L
- LIPASE [3]: 38.67 u/L
- PHOSPHORUS [3]: 7.8 mg/dL
- POTASSIUM [3]: 5.55 MEQ/L
- SODIUM [3]: 149.05 MEQ/L
- TOTAL BILIRUBIN [3]: 0.1 mg/dL
- TOTAL PROTEIN [3]: 6.03 G/DL
- URIC ACID [3]: 0.43 mg/dL
